Measurements: the supplement of paper PMC10307832

Assays:
Test in all cases: relative viability (nuclei count vs DMSO), 5 days (fraction); higher = more cells survive
IU1-47 + Tozasertib = compound: CC1=CC(=C(N1C2=CC=C(C=C2)Cl)C)C(=O)CN3CCCCC3 [IU1-47] + Cc1cc(Nc2cc(N3CCN(C)CC3)nc(Sc3ccc(NC(=O)C4CC4)cc3)n2)n[nH]1 [Tozasertib] (partner 0.1 µM)
Summary of the method: (§1)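 Lung cancer cell lines in 1536-well plates got either a single drug or a fixed anchor-drug dose together with five library-drug doses (not always all listed) in √10 steps, by pin tool, on the day after seeding. Nuclei were counted after 5 days, and relative viability is the treated-to-vehicle ratio of nuclei counts. Values are medians of duplicate plates.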

IU1-47 + Phenformin = compound: CC1=CC(=C(N1C2=CC=C(C=C2)Cl)C)C(=O)CN3CCCCC3 [IU1-47] + N=C(N)NC(=N)NCCc1ccccc1 [Phenformin] (partner 250 µM)
Summary of the method: as §1

FG-4592 + Bortezomib = compound: Cc1nc(C(=O)NCC(=O)O)c(O)c2ccc(Oc3ccccc3)cc12 [FG-4592] + CC(C)C[C@H](NC(=O)[C@H](Cc1ccccc1)NC(=O)c1cnccn1)B(O)O [Bortezomib] (partner 0.002 µM)
Summary of the method: as §1

FG-4592 + Lapatinib = compound: Cc1nc(C(=O)NCC(=O)O)c(O)c2ccc(Oc3ccccc3)cc12 [FG-4592] + CS(=O)(=O)CCNCc1ccc(-c2ccc3ncnc(Nc4ccc(OCc5cccc(F)c5)c(Cl)c4)c3c2)o1 [Lapatinib] (partner 2 µM)
Summary of the method: as §1

Cell Line | relative viability (IU1-47 + Tozasertib; first compound 0.08 µM) | relative viability (IU1-47 + Tozasertib; first compound 0.253 µM) | relative viability (IU1-47 + Tozasertib; first compound 0.8 µM) | relative viability (IU1-47 + Tozasertib; first compound 8 µM) | relative viability (IU1-47 + Phenformin; first compound 0.08 µM) | relative viability (IU1-47 + Phenformin; first compound 0.253 µM) | relative viability (IU1-47 + Phenformin; first compound 0.8 µM) | relative viability (IU1-47 + Phenformin; first compound 8 µM) | relative viability (FG-4592 + Bortezomib; first compound 0.08 µM) | relative viability (FG-4592 + Bortezomib; first compound 0.253 µM) | relative viability (FG-4592 + Bortezomib; first compound 0.8 µM) | relative viability (FG-4592 + Bortezomib; first compound 2.53 µM) | relative viability (FG-4592 + Bortezomib; first compound 8 µM) | relative viability (FG-4592 + Lapatinib; first compound 0.08 µM) | relative viability (FG-4592 + Lapatinib; first compound 0.253 µM) | relative viability (FG-4592 + Lapatinib; first compound 0.8 µM) | relative viability (FG-4592 + Lapatinib; first compound 2.53 µM) | relative viability (FG-4592 + Lapatinib; first compound 8 µM) | relative viability (IU1-47 + Tozasertib; first compound 2.53 µM) | relative viability (IU1-47 + Phenformin; first compound 2.53 µM)
NCI-H2087 | 0.225 | 0.224 | 0.287 | 0.241 | 0.469 | 0.503 | 0.548 | 0.441 | 0.775 | 0.864 | 0.983 | 0.832 | 0.789 | 0.888 | 0.943 | 1.37 | 1.1 | 1.15 | – | –
NCI-H2126 | 0.905 | 0.866 | 0.818 | 0.737 | 0.535 | 0.515 | 0.508 | 0.529 | 1.09 | 1.1 | 1.12 | 1.12 | 1.13 | 0.672 | 0.708 | 0.604 | 0.613 | 0.589 | – | –
NCI-H2228 | 0.267 | 0.303 | 0.246 | 0.249 | 0.413 | 0.434 | 0.315 | 0.262 | 0.928 | 0.872 | 0.786 | 1.1 | 0.737 | 1.46 | 0.778 | 0.84 | 0.844 | 0.864 | 0.198 | 0.32
NCI-H2347 | 0.561 | 0.518 | 0.632 | 0.445 | 0.387 | 0.413 | 0.336 | 0.345 | – | 0.623 | 0.806 | 0.782 | 1.14 | 0.906 | – | 0.848 | 0.917 | 0.974 | 0.51 | 0.496
NCI-H2405 | 0.753 | 0.801 | 0.755 | 0.692 | 0.404 | 0.415 | 0.386 | 0.365 | 0.906 | 0.894 | 0.998 | 0.922 | 0.952 | – | 0.733 | 0.87 | 0.918 | 0.702 | 0.735 | 0.371
NCI-H3122 | 0.442 | 0.423 | 0.371 | 0.331 | 0.398 | 0.373 | 0.366 | 0.347 | 1.03 | 1.02 | 1.13 | 1.07 | 1.07 | 1.1 | 0.989 | 1.03 | 1.08 | 1.1 | 0.46 | 0.372
PC-3 [JPC-3] | 0.913 | 0.903 | 0.922 | 0.773 | 0.498 | 0.463 | 0.44 | 0.429 | 0.824 | 0.745 | 0.872 | 0.884 | 0.832 | 0.446 | 0.419 | 0.362 | 0.402 | 0.439 | 0.851 | 0.496
PC-14 | 0.707 | 0.685 | 0.661 | 0.581 | 0.686 | 0.611 | 0.633 | 0.406 | 0.859 | 0.946 | 0.947 | 0.949 | 1.01 | 0.365 | 0.317 | 0.345 | 0.336 | 0.298 | – | 0.664
RERF-LC-KJ | 0.495 | 0.567 | 0.522 | 0.405 | 0.415 | 0.423 | 0.421 | 0.411 | 0.99 | 0.975 | 0.967 | 1.11 | 1.06 | 0.793 | 0.816 | 0.86 | 0.899 | 0.725 | 0.452 | 0.493
SK-LU-1 | 0.316 | 0.361 | 0.309 | 0.292 | 0.574 | 0.507 | 0.487 | 0.419 | – | 0.849 | 0.825 | 1.31 | 0.978 | 0.774 | 0.717 | 0.776 | 0.988 | 0.88 | 0.318 | 0.581
SW 1573 | 0.17 | 0.167 | 0.176 | 0.143 | 0.394 | 0.353 | 0.367 | 0.382 | 1.04 | 0.954 | 0.963 | 1 | 1 | 1.05 | 1.12 | 1.11 | 1.11 | 1.22 | 0.184 | 0.421
